From patent US4007201A, “Novel pyrazole derivatives” (Kyorin Pharmaceutical Co. Ltd., priority 1975, dated 1977)
Like-named read-outs stand apart in the source and are kept apart here.

What was measured:
Type in all cases: in vivo, male Sprague Dawley rats
[1] = test system: blood glucose level in non-diabetic rats; assay: Hypoglycemic activity in non-diabetic rats (screening test); conditions: Rattus norvegicus, 100 mg/kg oral, fasted, glucose s.c.
Protocol: (§1) These new compounds of the present invention are very useful as anti-diabetic agents, which is supported from the following pharmacological studies. The animals used for the pharmacological studies were male Sprague Dawley rats exept otherwise noted. 1. Hypoglycemic activity in non-diabetic rats (screening test)
The rats were fasted for 16 - 18 hours prior to the experiment and those weighing 140 - 160g were used. Glucose solution (100 mg/0.5ml/150g body weight) was subcutaneously injected on the fasted rats. Each of the present compounds was suspended in 1% carboxymethyl cellulose (CMC), and about 0.5 ml of the suspension (corresponding to 100 mg/kg of the compound per body weight) was orally administered. Blood samples were taken from the tail vein of the rats at 2 and 5 hours after the administration, and the blood glucose level in each sample (0.1 ml) was determined by the micro method of Momose as described in SOGO-RINSHO 11, 120 (1962).
3,5-Dinitrophthalic acid is reduced with glucose to stable orange-red azo-compound via red hydroxyaminophthalic acid in basic media.
To 0.5ml of water was added 0.1ml of blood and shaken to hemolyze, and to which was added 1.7ml of 0.06N barium hydroxide solution. To the resulting dark-brown solution was added 1.7ml of zinc sulfate solution (1g/dl), and which was shaken thoroughly and allowed to stand for 2-3min followed by centrifugation.
One ml of 3,5-dinitrophthalic acid solution (1.5g of monopyridinium-3,5-dinitrophthalate in 500ml of water) and 1 ml of sodium carbonatesodium hyposulfite solution (125-25g/500ml) were added to 2ml of spernatant solution. The solution was heated at 100° C for 10 min. After cooling with running water for 3 min, water was added to make 20ml.
To 2ml of water were added 3,5-dinitrophthalic acid solution and an alkaline solution, and the solution was treated as mentioned above.
As the absorbance of reference at 450nm was adjusted to 0, the absorbance of sample corresponded to blood glucose level.

[2] = test system: serum cholesterol level in alloxan diabetic rats; assay: Serum cholesterol level in alloxan diabetic rats, 10 consecutive days; conditions: 100 mg/kg, 10 consecutive days
Protocol: as §1
(§2) Alloxan diabetic rats were obtained as follows. Namely, 2.5% fresh solution of alloxan (50mg/kg) was injected into the tail vein of male rats, and the rats were daily injected with insulin (1-4 units/day) from the 7th day after the administration of alloxan. The alloxan diabetic rats which were survived for more than 2 months with daily injection of insulin were used. The alloxan diabetic rats were fasted for 24 hours after the last treatment with insulin, and then the compound of the present invention was orally administered. The blood glucose levels were determined by the micro method of Momose before and 2, 4 and 6 hours after the administration.
(§3) The alloxan diabetic rats which were prepared and then preserved for 6 months with insulin as described in the previous experiment were used.

[3] = test system: blood glucose level in alloxan diabetic rats; assay: Hypoglycemic effect in alloxan diabetic rats; conditions: ± SE
Protocol: as §1, §2

[4] = test system: serum FFA level in alloxan diabetic rats; assay: Serum FFA level in alloxan diabetic rats, 10 consecutive days; conditions: 100 mg/kg, 10 consecutive days
Protocol: as §1, §2, §3

[5] = test system: serum FFA level in non-diabetic rats; assay: Serum free fatty acids (FFA) level in non-diabetic rats at 90 minutes; conditions: 100 mg/kg oral
Protocol: as §1
(§4) The rats were fasted for 16-18 hours, and those weighing 130-160g were used. The compound 4 suspended in 1% CMC was orally administered to the fasted rats, and at 90 minutes after administration blood was drawn from the […] vena cava under anesthesia with sodium pentobarbital. The blood glucose level was determined by the method of Momose, and the serum FFA level was determined by the method of Itaya and Ui as described in J. Lipid Res., 6, 16 (1965), respectively.

[6] = test system: blood glucose level in streptozotocin-diabetic rats; assay: Hypoglycemic effect in streptozotocin-diabetic rats; conditions: Rattus norvegicus; 100 mg/kg oral; 4 hours
Protocol: The animals used for the pharmacological studies were male Sprague Dawley rats exept otherwise noted. 1. […]
The rats were fasted for 16 hours, and then streptozotocin was intravenously injected in a dose of 65 mg/kg. Oral administration of the compound 4 was performed at 48 hours after the injection of streptozotocin. Blood samples were taken at 4 hours after the oral administration, and the blood glucose level in each sample was determined.

[7] = test system: blood glucose level in non-diabetic rats; assay: Blood glucose level in non-diabetic rats at 90 minutes; conditions: 100 mg/kg oral
Protocol: as §1, §4

[8] = test system: serum FFA level in fasted rats; assay: Time course of the serum FFA level in fasted rats (FIG. 1); conditions: 50 mg/kg oral; 0.5, 1, 2, 4 and 6 hours
Protocol: as §1
Further experiment was performed to clarify the effectiveness of the compound 4 on the serum FFA. Blood samples were taken at 0.5, 1, 2, 4 and 6 hours after an oral administration of 50 mg/kg to the fasted rats and the serum FFA levels were determined.

[9] = test system: blood glucose level in alloxan diabetic rats; assay: Blood glucose level in alloxan diabetic rats loaded with much quantity of glucose; conditions: alloxan diabetic rats; dose not stated
Protocol: as §1
Respective dose of the compound 4 (12.5 and 100 mg/kg) together with 2g/kg of glucose was orally administered to the alloxan diabetic rats.

[10] = 2 hours, read-out: Reduction % of blood glucose from control after 2 hours
[11] = 5 hours, read-out: Reduction % of blood glucose from control after 5 hours

Compound: Cc1cc(C)n(C(=O)CCNS(=O)(=O)c2ccccc2)n1 [Example 1, 1-(N-benzenesulfonyl-β-alanyl)-3,5-dimethylpyrazole]
- inhibition in vivo at 100 mg/kg [1, 10]: 22.1%
- inhibition in vivo at 100 mg/kg [1, 11]: 19.8%

Compound: CC(=O)NCCc1ccc(S(=O)(=O)NCCC(=O)n2nc(C)cc2C)cc1 [Example 2, 1-≡N-[p-(2-acetaminoethyl)benzene-sulfonyl]-β-alanyl.quadrature. -3,5-dimethylpryrazole]
- inhibition in vivo at 100 mg/kg [1, 10]: 37.1%
- inhibition in vivo at 100 mg/kg [1, 11]: 26%

Compound: Cc1cc(C)n(C(=O)CCNS(=O)(=O)c2ccc(CCNC(=O)c3cnccn3)cc2)n1 [Example 3, 1-≡N-≡ p-[2-(2-pyrazinecarbonyl-amino)ethyl]benzenesulfonyl.quadrature. -β-alanyl.quadrature. -3,5-dimethylpyrazole]
- inhibition in vivo at 100 mg/kg [1, 10]: 41.7%
- inhibition in vivo at 100 mg/kg [1, 11]: 25.7%

Compound: CC(=O)NCCc1ccc(S(=O)(=O)NCC(=O)n2nc(C)cc2C)cc1 [Example 5, 1-≡N-[p-(2-acetaminoethyl)-benzenesulfonyl]-glycyl.quadrature.-3,5-dimethylpyrazole]
- inhibition in vivo at 100 mg/kg [1, 10]: 35.2%
- inhibition in vivo at 100 mg/kg [1, 11]: 34.1%

Compound: CCOC(=O)NCCc1ccc(S(=O)(=O)NCC(=O)n2nc(C)cc2C)cc1 [Example 6, 1-≡N-[p-(2-ethoxycarbonylaminoethyl)benzenesulfonyl]-glycyl.quadrature.-3,5-dimethylpyrazole]
- inhibition in vivo at 100 mg/kg [1, 10]: 33.3%
- inhibition in vivo at 100 mg/kg [1, 11]: 22.1%

Compound: CCOC(=O)NCCc1ccc(S(=O)(=O)NCCC(=O)n2nc(C)cc2C)cc1 [Example 7, 1-≡N-[p-(2-ethoxycarbonylaminoethyl)benzenesulfonyl]-β -alanyl.qu adrature.-3,5-dimethylpyrazole]
- inhibition in vivo at 100 mg/kg [1, 10]: 41.6%
- inhibition in vivo at 100 mg/kg [1, 11]: 23.3%

Compound: Cc1cc(C)n(C(=O)CCNS(=O)(=O)c2ccc(Cl)cc2)n1 [Example 8, 1-[N-(p-chlorobenzenesulfonyl)-β-alanyl]-3,5-dimethylpyrazole]
- inhibition in vivo at 100 mg/kg [1, 10]: 42.5%
- inhibition in vivo at 100 mg/kg [1, 11]: 22.1%

Compound: COc1ccc(Cl)cc1C(=O)NCCc1ccc(S(=O)(=O)NCC(=O)n2nc(C)cc2C)cc1 [Example 9, 1-≡N-≡p-[2-(2-methoxy-5-chlorobenzoylamino)-ethyl]benzenesulfonyl.quadrature.glycyl.quadrature.-3,5-dimethyl-pyrazole]
- inhibition in vivo at 100 mg/kg [1, 10]: 48.1%
- inhibition in vivo at 100 mg/kg [1, 11]: 17.7%

Compound: Cc1cc(C)n(C(=O)CNS(=O)(=O)c2ccc(C3CCCCC3)cc2)n1 [Example 10, 1-[N-(p-cyclohexylbenzenesulfonyl)-glycyl]-3,5-dimethylpyrazole]
- inhibition in vivo at 100 mg/kg [1, 10]: 42.1%
- inhibition in vivo at 100 mg/kg [1, 11]: 3.3%

Compound: Cc1cc(C)n(C(=O)CNS(=O)(=O)c2ccc(CC(C)C)cc2)n1 [Example 11, 1-[N-(p-isobutylbenzenesulfonyl)-glycyl]-3,5-dimethylpyrazole]
- inhibition in vivo at 100 mg/kg [1, 10]: 37.9%
- inhibition in vivo at 100 mg/kg [1, 11]: 1.4%

Compound: Cc1cc(C)n(C(=O)C(NS(=O)(=O)c2ccc(Cl)cc2)c2ccccc2)n1 (stereo not drawn) [Example 12, 1-[N-(p-chlorobenzenesulfonyl)-α-phenylglycyl]-3,5-dimethylpyrazole]
- inhibition in vivo at 100 mg/kg [1, 10]: 32.6%
- inhibition in vivo at 100 mg/kg [1, 11]: 4%

Compound: Cc1cc(C)n(C(=O)[C@H](C)NS(=O)(=O)c2ccc(Cl)cc2)n1 [Example 13, 1-[N-(p-chlorobenzenesulfonyl)-alanyl]-3,5-dimethylpyrazole]
- inhibition in vivo at 100 mg/kg [1, 10]: 51.3%
- inhibition in vivo at 100 mg/kg [1, 11]: 5%

Compound: Cc1cc(C)n(C(=O)[C@H](Cc2ccccc2)NS(=O)(=O)c2ccc(Cl)cc2)n1 [Example 14, 1-[N-(p-chlorobenzenesulfonyl)-phenylalanyl]-3,5-dimethylpyrazole]
- inhibition in vivo at 100 mg/kg [1, 10]: 43.6%
- inhibition in vivo at 100 mg/kg [1, 11]: -0.9%

Compound: [H]/N=C(/N)N/C(=N/[H])NCCc1ccccc1 [Phenformin, phenethylbiguanide, reference compound]
- Cholesterol [2]: 63.5 ± 5.4 mg/dl serum
- Blood glucose before administration ([3]; 100 mg/kg oral group, before administration (baseline)): 368.7 ± 31.3 mg%
- Blood glucose 2 hours ([3]; 100 mg/kg oral, 2 hours): 262.2 ± 43.3 mg%
- Blood glucose 4 hours ([3]; 100 mg/kg oral, 4 hours): 196.0 ± 48.9 mg%
- Blood glucose 6 hours ([3]; 100 mg/kg oral, 6 hours): 133.7 ± 29.3 mg%
- FFA [4]: 89.9 ± 16.4 μ Eq/dl serum
- Serum FFA level [5]: 59.8 ± 18.0 μ Eq/dl
- inhibition at 100 mg/kg [6]: 79.9 ± 2.9%
- Blood glucose level [7]: 103.0 ± 6.9 mg/dL

Compound: COCCOc1cnc(NS(=O)(=O)c2ccccc2)nc1 [sodium glymidine]
- Effect on serum FFA level (in words, FIG. 1) [8]: only a slight suppression
- Hypoglycemic effect (in words) [9]: no hypoglycemic effect
